Data as given in patent US4604237A, “Des-21-threonine-calcitonin” (Armour Pharmaceutical Company, priority 1984, dated 1986).

Columns and labels:
[1] = tested on: serum calcium concentration; experiment: Biological assay of calcitonin analogs in vivo: reduction of serum calcium, 2×2 parallel line assay against synthetic salmon calcitonin standard; parameters: species or system Rats; conditions: independently determined content of the standard
Experimental: The biological potency of des-21-threonine-salmon calcitonin was determined by comparing the reduction of serum calcium concentration which followed administration by graded doses of des-Thr^21 -SCT and synthetic salmon calcitonin standard. Rats were divided into four groups of seven animals, and each group was assigned at random to a dose of standard or test solution. Low and high doses were chosen from the linear portion of the dose-response curve. For the salmon calcitonin standard, the values were 0.7 and 2.1 ng. peptide/100 g. body weight (BW). This dose approximates 3 and 9 MU/100 g. BW. Peptides were given by subcutaneous injection (0.2 ml/100 g. BW) and blood was withdrawn 1 hour later for serum calcium determination. Sera are processed and analyzed within two hours of collection. […]. Results were analyzed by a 2×2 parallel line assay [Gaddum, J. H., J. Pharm. Pharmacol., 6, 345 (1953)]. The standard salmon calcitonin used was independently determined to contain greater than 4,000 IU/mg. des-Thr^21 -SCT assayed at 5355 IU/mg.

[2] = literature values; cited from earlier work

| Molecule | potency of the standard salmon calcitonin used [1] | hypocalcemic potency [2] |
| --- | --- | --- |
| CC(C)C[C@H](NC(=O)[C@H](CCCCN)NC(=O)CNC(=O)[C@H](CC(C)C)NC(=O)[C@@H](NC(=O)[C@@H]1CSSC[C@H](N)C(=O)N[C@@H](CO)C(=O)N[C@@H](CC(N)=O)C(=O)N[C@@H](CC(C)C)C(=O)N[C@@H](CO)C(=O)N[C@@H]([C@@H](C)O)C(=O)N1)C(C)C)C(=O)N[C@@H](CO)C(=O)N[C@@H](CCC(N)=O)C(=O)N[C@@H](CCC(=O)O)C(=O)N[C@@H](CC(C)C)C(=O)N[C@@H](Cc1c[nH]cn1)C(=O)N[C@@H](CCCCN)C(=O)N[C@@H](CC(C)C)C(=O)N[C@@H](CCC(N)=O)C(=O)N[C@H](C(=O)N[C@@H](Cc1ccc(O)cc1)C(=O)N1CCC[C@H]1C(=O)N[C@@H](CCCNC(=N)N)C(=O)N[C@H](C(=O)N[C@@H](CC(N)=O)C(=O)N[C@H](C(=O)NCC(=O)N[C@@H](CO)C(=O)NCC(=O)N[C@H](C(=O)N1CCC[C@H]1C(N)=O)[C@@H](C)O)[C@@H](C)O)[C@@H](C)O)[C@@H](C)O [standard salmon calcitonin, Salmon calcitonin] | greater than 4,000 IU/mg |  |
| (1,7-α-L-aminosuberic acid)eel calcitonin |  | about 3400 IU/mg. |
| eel calcitonin [synthetic eel calcitonin] |  | around 4300 IU/mg. |
